Reference: patent publication US4335127A, “Piperidinylalkyl quinazoline compounds, composition and method of use” (Janssen Pharmaceutica, N.V., priority 1979, dated 1982)

Columns and labels:
[1] = test system: Caudal Artery of the Rat (effect of serotonin); assay: Antagonistic Activity on the Effect of Serotonin on the Caudal Artery of the Rat (Test 1); details: serotonin 40 ng/ml; 5 minutes after adding the drug; rat caudal artery strips
Protocol: Caudal arteries from fasted male rats (210-235 g) are used in the test. Two helical strips having a length of 5-6 cm and a width of 2 mm are obtained from each artery and mounted vertically in a 100 ml organ bath containing an oxygenated Krebs-Henseleit solution. Submaximal contractions of the arterial strips are produced by adding single doses of serotonin (40 ng/ml) to the organ bath for 2 minutes with each time an interval of 10 minutes. The amplitude of the contraction is measured before and 5 minutes after adding the drug. After washing out, the agonist is added again three times in order to see whether the contraction is restored and normalized. […] In this connection the ED50 -values are the minimal concentrations of the concerned drugs which reduce the amplitude of the contraction to at least 50% of its normal value.

[2] = test system: cyanosis of ears and extremities induced by compound 48/80 in rats; assay: Cyanosis of ears and extremities induced by compound 48/80 (Test 2); type: in vivo, rat (male, Wistar inbred strain); details: Rattus norvegicus, po, 5 min; read-out: Cyanosis ED50 (dose at which cyanosis of ears and extremities is completely absent in 50% of the test rats)
Protocol: (§1) The shock, followed by dead, can be avoided if the rats are pretreated with a classical H 1 antagonist.
(§2) Male rats of a Wistar inbred strain, weighing 220-250 g, are starved overnight, water being available ad libitum. The test compounds are administered orally as a solution or as a suspension in aqueous medium. A control rat and a "blank" rat receive the test compound. One hour later 5-[4-(diphenylmethyl)-1-piperazinylmethyl]-1-methyl-1H-benzimidazole-2-methanol is administered subcutaneously to all rats at the dose of 2.5 mg/kg. […] Five minutes after the injection the intensity of purple-blue coloration (cyanosis) of the extremities is scored as 0 (absent), +(moderate) or ++(intense). Four hours after the intravenous injection of compound 48/80 the rats are decapitated and the stomachs are removed. Subsequently the stomachs are inspected for distension and contents (blood, fluid, food) and thoroughly rinsed. The macroscopic lesions are scored from 0 to + ++, 0 corresponding to complete absence of visible lesions and the highest score corresponding to reddish rough patches covering more than half the glandular area.

[3] = test system: lesions in the glandular area of the stomach and distension of the stomach induced by compound 48/80 in rats; assay: Gastric lesion test: lesions induced by compound 48/80 (Test 2); type: in vivo, rat (male, Wistar inbred strain); details: oral, 2 hours before compound 48/80 (1 mg/kg i.v.); stomachs inspected 4 hours after
Protocol: as §1, §2

[4] = test system: lesions in the glandular area of the stomach and distension of the stomach induced by compound 48/80 in rats; details: rats treated with compound 48/80; cited from earlier work
[5] = test system: cyanosis of ears and extremities induced by compound 48/80 in rats; details: rats treated with compound 48/80; cited from earlier work

SMILES | Caudal artery ED50 (minimal concentration which reduces the amplitude of the serotonin-induced contraction to at least 50% of its normal value) [1] | ED50 [2] | G. lesion ED50 (dose at which distension of the stomach and lesions in the glandular area are completely absent in 50% of the test rats) [3] | prevention of the abnormal gastric distension (known serotonin antagonists) [4] | prevention of the lesions in the glandular area of the stomach (known serotonin antagonists) [4] | prevention of the cyanosis of ears and extremities (known serotonin antagonists) [5]
O=C(c1ccc(F)cc1)C1CCN(CCCn2c(=S)[nH]c3ccccc3c2=O)CC1 [3-[3-[4-(4-fluorobenzoyl)-1-piperidinyl]propyl]-2,3-dihydro-2-thioxo-4(1H)-quinazolinone] | 2 ng/mL | 0.63 mg/kg | 2.5 mg/kg |  |  | 
O=C(c1ccc(F)cc1)C1CCN(CCn2c(=O)[nH]c3cc(F)ccc3c2=O)CC1 [7-fluoro-3-[2-[4-(4-fluorobenzoyl)-1-piperidinyl]ethyl]-2,4(1H,3H)-quinazolinedione] | 0.7 ng/mL | 0.16 mg/kg | 1.25 mg/kg |  |  | 
CN(C)CCCSc1ccccc1NC(=O)/C=C/c1ccccc1 [cinanserin] |  |  |  | prevent completely | prevent completely | prevent completely
CN1CCC(=C2c3ccccc3C=Cc3ccccc32)CC1 [cyproheptadine] |  |  |  | prevent completely | prevent completely | prevent completely
O=C(c1ccc(F)cc1)C1CCN(CCN2C(=O)Nc3ccccc3C2c2ccccc2)CC1 (stereo not drawn) [drawing 34: R^6=C6H5, Alk=(CH2)2, Ar=4-FC6H4, 3-[2-[4-(4-fluorobenzoyl)-1-piperidinyl]ethyl]-3,4-dihydro-4-phenyl-2(1H)-quinazolinone] | 0.6 ng/mL | 0.08 mg/kg | 0.08 mg/kg |  |  | 
CN1C[C@H](CNC(=O)OCc2ccccc2)C[C@@H]2c3cccc4c3c(cn4C)C[C@H]21 [metergoline] |  |  |  | prevent completely | prevent completely | prevent completely
CC[C@@H](CO)NC(=O)[C@@H]1C=C2c3cccc4c3c(cn4C)C[C@H]2N(C)C1 [methysergide] |  |  |  | prevent completely | prevent completely | prevent completely
CN1CCN2c3ccccc3Cc3ccccc3C2C1 (stereo not drawn) [mianserin] |  |  |  | prevent completely | prevent completely | prevent completely
NC(=O)C1(N2CCCCC2)CCN(CCCC(=O)c2ccc(F)cc2)CC1 [pipamperone] |  |  |  | prevent completely | prevent completely | prevent completely
CN1CCC(=C2c3ccccc3CCc3sccc32)CC1 [pizotifen] |  |  |  | prevent completely | prevent completely | prevent completely
O=C(CCCN1CCC2(CC1)C(=O)NCN2c1ccccc1)c1ccc(F)cc1 [spiperone] |  |  |  | prevent completely | prevent completely | prevent completely
